Values quoted from earlier work, collected in US20110271957A1, “Delivery of estrogen and bioequivalents thereof via the pulmonary tract” (BATTELLE MEMORIAL INSTITUTE, priority 2010, published 2011).

Conditions: intranasal delivery route

bioavailability of administered estradiol: about 25%
Compound: C[C@]12CC[C@@H]3c4ccc(O)cc4CC[C@H]3[C@@H]1CC[C@@H]2O [estradiol, 17β-estradiol]
